According to patent US9493501B2 (MEMORIAL SLOAN-KETTERING CANCER CENTER, priority 2011, dated 2016):

Target: T1, SETD2 (1347-1711) (Homo sapiens, UniProt Q9BYW2)
T1 sequence (Q9BYW2 1347-1711): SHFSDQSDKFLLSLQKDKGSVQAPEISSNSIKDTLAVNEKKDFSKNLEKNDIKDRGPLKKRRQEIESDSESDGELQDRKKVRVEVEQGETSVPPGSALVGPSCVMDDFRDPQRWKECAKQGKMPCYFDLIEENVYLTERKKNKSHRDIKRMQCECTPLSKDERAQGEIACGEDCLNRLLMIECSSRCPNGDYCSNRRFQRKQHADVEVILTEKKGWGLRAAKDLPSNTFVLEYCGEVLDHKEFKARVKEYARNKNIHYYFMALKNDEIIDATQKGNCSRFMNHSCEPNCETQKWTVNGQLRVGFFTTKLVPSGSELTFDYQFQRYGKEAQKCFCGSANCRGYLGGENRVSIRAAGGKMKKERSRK
Test: Filter-paper methylation assay, SETD2
Assay type: biochemical

## Nc1ncnc2c1ncn2C1OC(CC(CCC(N)C(=O)O)NCc2ccccc2)C(O)C1O (stereo not shown) [Compound 110]
  IC50: 500 nM
